In US8691753B2 (priority 2009, dated 2014):
Where two headings read alike, the source gives them in different places.

Tests used:
Assay type in all cases: biochemical
[1] = molecular target: MMP-2h (Homo sapiens (Human), UniProt P08253); experiment: Inhibition constant (Ki) on MMP-2h; details: human MMP-2
Procedure, shortened: (§1)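 Ki values were determined against the human enzymes using a previously published inhibition protocol.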

[2] = molecular target: MMP-3h (Homo sapiens (Human), UniProt P08254); experiment: Inhibition constant (Ki) on MMP-3h; details: human MMP-3
Sequence of MMP-3h (P08254 100-477): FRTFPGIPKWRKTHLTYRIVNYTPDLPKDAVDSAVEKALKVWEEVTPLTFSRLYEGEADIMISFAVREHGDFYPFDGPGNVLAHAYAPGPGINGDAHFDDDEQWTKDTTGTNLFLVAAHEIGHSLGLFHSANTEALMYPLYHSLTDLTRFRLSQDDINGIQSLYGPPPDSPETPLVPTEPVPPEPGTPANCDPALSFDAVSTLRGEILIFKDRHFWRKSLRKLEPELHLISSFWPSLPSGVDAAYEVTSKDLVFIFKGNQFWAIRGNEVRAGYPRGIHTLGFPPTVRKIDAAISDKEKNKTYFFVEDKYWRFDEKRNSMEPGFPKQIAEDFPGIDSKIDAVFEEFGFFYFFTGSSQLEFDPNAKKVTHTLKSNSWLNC
Procedure, shortened: as §1

[3] = molecular target: MMP-8h (Homo sapiens (Human), UniProt P22894); experiment: Inhibition constant (Ki) on MMP-8h; details: human MMP-8
Sequence of MMP-8h (P22894 101-467): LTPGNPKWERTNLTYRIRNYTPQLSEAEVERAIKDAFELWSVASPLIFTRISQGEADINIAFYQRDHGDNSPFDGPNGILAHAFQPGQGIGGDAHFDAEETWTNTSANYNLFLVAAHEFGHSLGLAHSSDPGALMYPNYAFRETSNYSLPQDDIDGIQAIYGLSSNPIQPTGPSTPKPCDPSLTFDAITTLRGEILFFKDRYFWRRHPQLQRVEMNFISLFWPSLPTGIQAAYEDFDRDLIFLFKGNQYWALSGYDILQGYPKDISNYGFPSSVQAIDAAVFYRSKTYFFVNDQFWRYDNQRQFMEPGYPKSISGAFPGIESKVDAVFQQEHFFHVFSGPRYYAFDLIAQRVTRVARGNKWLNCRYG

[4] = molecular target: MMP-9h (Homo sapiens (Human), UniProt P14780); experiment: Inhibition constant (Ki) on MMP-9h; details: human MMP-9
Sequence of MMP-9h (P14780 94-707): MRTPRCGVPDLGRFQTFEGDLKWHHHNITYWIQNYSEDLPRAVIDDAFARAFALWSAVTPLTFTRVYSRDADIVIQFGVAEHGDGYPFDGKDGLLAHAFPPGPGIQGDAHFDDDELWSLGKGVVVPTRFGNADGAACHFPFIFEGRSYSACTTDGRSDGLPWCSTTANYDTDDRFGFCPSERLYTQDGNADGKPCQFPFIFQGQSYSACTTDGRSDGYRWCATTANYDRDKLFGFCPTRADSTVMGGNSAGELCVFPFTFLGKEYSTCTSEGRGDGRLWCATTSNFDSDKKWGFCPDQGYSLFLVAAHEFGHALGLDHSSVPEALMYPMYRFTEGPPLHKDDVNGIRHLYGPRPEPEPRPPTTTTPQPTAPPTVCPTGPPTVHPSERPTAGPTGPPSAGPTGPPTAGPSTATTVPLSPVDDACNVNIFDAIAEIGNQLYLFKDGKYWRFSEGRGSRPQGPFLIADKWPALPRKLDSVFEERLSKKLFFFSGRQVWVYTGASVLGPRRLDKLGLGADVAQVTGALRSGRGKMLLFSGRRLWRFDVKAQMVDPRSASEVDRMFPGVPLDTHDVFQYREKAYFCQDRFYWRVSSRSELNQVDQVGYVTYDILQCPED
Procedure, shortened: as §1

[5] = molecular target: MMP-10h (Homo sapiens (Human), UniProt P09238); experiment: Inhibition constant (Ki) on MMP-10h; details: human MMP-10
Sequence of MMP-10h (P09238 99-476): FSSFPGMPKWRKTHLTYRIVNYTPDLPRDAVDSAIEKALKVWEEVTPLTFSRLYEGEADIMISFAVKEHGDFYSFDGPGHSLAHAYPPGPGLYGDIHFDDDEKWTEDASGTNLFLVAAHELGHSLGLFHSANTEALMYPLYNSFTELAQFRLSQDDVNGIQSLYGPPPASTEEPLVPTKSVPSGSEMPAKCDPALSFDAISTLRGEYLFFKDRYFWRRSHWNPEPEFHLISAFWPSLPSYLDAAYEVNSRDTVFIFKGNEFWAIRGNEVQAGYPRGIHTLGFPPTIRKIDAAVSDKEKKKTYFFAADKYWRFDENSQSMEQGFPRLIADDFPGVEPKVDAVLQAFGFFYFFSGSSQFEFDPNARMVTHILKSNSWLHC

[6] = molecular target: MMP-12h (Homo sapiens (Human), UniProt P39900); experiment: Inhibition constant (Ki) on MMP-12h; details: human MMP-12
Sequence of MMP-12h (P39900 106-470): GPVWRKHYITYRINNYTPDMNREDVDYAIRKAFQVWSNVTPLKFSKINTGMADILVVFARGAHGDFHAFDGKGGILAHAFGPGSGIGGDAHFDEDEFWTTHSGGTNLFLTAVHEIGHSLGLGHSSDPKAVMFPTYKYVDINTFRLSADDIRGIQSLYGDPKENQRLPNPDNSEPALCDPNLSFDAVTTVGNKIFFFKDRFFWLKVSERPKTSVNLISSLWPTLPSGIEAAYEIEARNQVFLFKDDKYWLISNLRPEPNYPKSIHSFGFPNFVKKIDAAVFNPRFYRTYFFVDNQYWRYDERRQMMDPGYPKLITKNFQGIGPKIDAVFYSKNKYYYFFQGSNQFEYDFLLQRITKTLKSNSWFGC

[7] = molecular target: MMP-13h (Homo sapiens (Human), UniProt P45452); experiment: Inhibition constant (Ki) on MMP-13h; details: human MMP-13
Procedure, shortened: as §1

[8] = molecular target: MMP-14h (Homo sapiens (Human), UniProt P50281); experiment: Inhibition constant (Ki) on MMP-14h; details: human MMP-14
Procedure, shortened: as §1

Sequence of MMP-2h (P08253 110-660): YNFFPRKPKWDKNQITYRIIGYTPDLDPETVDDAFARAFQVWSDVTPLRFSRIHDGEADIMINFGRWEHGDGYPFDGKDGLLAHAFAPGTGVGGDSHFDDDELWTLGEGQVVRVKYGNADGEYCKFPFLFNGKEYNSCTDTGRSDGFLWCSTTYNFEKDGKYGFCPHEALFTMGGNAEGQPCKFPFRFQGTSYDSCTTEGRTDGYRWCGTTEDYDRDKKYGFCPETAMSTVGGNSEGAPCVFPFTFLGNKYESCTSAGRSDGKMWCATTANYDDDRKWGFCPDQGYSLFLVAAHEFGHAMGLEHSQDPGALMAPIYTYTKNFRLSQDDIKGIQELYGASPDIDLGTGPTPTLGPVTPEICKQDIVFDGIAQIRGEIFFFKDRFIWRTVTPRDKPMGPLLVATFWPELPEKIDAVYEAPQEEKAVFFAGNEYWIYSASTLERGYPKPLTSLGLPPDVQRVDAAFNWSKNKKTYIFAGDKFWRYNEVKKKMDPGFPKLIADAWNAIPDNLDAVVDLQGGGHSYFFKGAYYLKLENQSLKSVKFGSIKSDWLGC

| Compound | Ki ([1]; read-out: Ki MMP-2h) | Ki ([2]; read-out: Ki MMP-3h) | Ki ([3]; read-out: Ki MMP-8h) | Ki ([4]; read-out: Ki MMP-9h) | Ki ([5]; read-out: Ki MMP-10h) | Ki ([6]; read-out: Ki MMP-12h) | Ki ([7]; read-out: Ki MMP-13h) | Ki ([8]; read-out: Ki MMP-14h) | Ki [1] | Ki [2] | Ki [3] | Ki [4] | Ki [5] | Ki [6] | Ki [7] | Ki [8] |
| --- | --- | --- | --- | --- | --- | --- | --- | --- | --- | --- | --- | --- | --- | --- | --- | --- |
| CC(C)C[C@H](NC(=O)[C@H](CCC(=O)O)NC(=O)CCc1ccc(-c2ccc(-c3ccccc3)cc2)cc1)C(N)=O [Compound 69, (S)-5-((S)-1-amino-4-methyl-1-oxopentan-2-ylamino)-4-(3-(4′-phenylbiphenyl-4-yl)propanamido)-5-oxopentanoic acid] | 332 nM | 258 nM | 567 nM | > 1000 nM | 382 nM | 7.8 nM | 81 nM | > 5000 nM |  |  |  |  |  |  |  |  |
| O=C(O)CC[C@H](NC(=O)CCc1ccc(-c2ccc(-c3ccccc3)cc2)cc1)C(=O)N1CCC[C@@H](CC(=O)O)C1 [Compound 70, (S)-5-((S)-3-(carboxymethyl)piperidin-1-yl)-4-(3-(4′-phenylbiphenyl-4-yl)propanamido)-5-oxopentanoic acid] | 12 nM | 231 nM | 105 nM | > 5000 nM | 421 nM | 4.7 nM | 17 nM | > 1000 nM |  |  |  |  |  |  |  |  |
| O=C(O)CC[C@H](NC(=O)CCc1ccc(-c2ccc(-c3ccccc3)cc2)cc1)C(=O)Nc1cccc(CC(=O)O)c1 [Compound 71, (S)-5-(3-(carboxymethyl)phenylamino)-4-(3-(4′-phenylbiphenyl-4-yl)propanamido)-5-oxopentanoic acid] | 18.1 nM | 34 nM | 99 nM | 645 nM | 7.7 nM | 1.05 nM | 10.2 nM | 696 nM |  |  |  |  |  |  |  |  |
| NC(=O)CC[C@H](NC(=O)CCc1ccc(-c2ccc(-c3ccccc3)cc2)cc1)C(=O)N[C@@H](CCC(=O)O)C(N)=O [Compound 72, (S)-5-amino-4-((S)-5-amino-2-(3-(4′-phenylbiphenyl-4-yl)propanamido)-5-oxopentanamido)-5-oxopentanoic acid] |  |  |  |  |  |  |  |  | 386 nM | 64 nM | > 1000 nM | > 5000 nM | > 1000 nM | 134 nM | 180 nM | > 5000 nM |
| NCCCC[C@H](NC(=O)CCc1ccc(-c2ccc(-c3ccccc3)cc2)cc1)C(=O)N[C@@H](CCC(=O)O)C(N)=O [Compound 73, (S)-5-amino-4-((S)-6-amino-2-(3-(4′-phenylbiphenyl-4-yl)propanamido)hexanamido)-5-oxopentanoic acid] | 541 nM | 300 nM | > 1000 nM | > 10000 nM | > 1000 nM | 254 nM | 97 nM | > 10000 nM |  |  |  |  |  |  |  |  |
| NC(=O)[C@H](CCC(=O)O)NC(=O)[C@H](CC(=O)O)NC(=O)CCc1ccc(-c2ccc(-c3ccccc3)cc2)cc1 [Compound 74, (S)-5-amino-4-((S)-3-carboxy-2-(3-(4′-phenylbiphenyl-4-yl)propanamido)propanamido)-5-oxopentanoic acid] | 39 nM | 16 nM | 865 nM | > 1000 nM | 430 nM | 10.5 nM | 13.5 nM | > 1000 nM |  |  |  |  |  |  |  |  |
| NC(=O)[C@H](CCC(=O)O)NC(=O)[C@H](Cc1ccc(O)cc1)NC(=O)CCc1ccc(-c2ccc(-c3ccccc3)cc2)cc1 [Compound 75, (S)-5-amino-4-((S)-3-(4-hydroxyphenyl)-2-(3-(4′-phenylbiphenyl-4-yl)propanamido)propanamido)-5-oxopentanoic acid] | > 1000 nM | 252 nM | > 5000 nM | > 10000 nM | > 1000 nM | 122 nM | 232 nM | > 10000 nM |  |  |  |  |  |  |  |  |
| C[C@H](NC(=O)CCc1ccc(-c2ccc(-c3ccccc3)cc2)cc1)C(=O)N[C@@H](CCC(=O)O)C(N)=O [Compound 76, (S)-5-amino-4-((S)-2-(3-(4′-phenylbiphenyl-4-yl)propanamido)propanamido)-5-oxopentanoic acid] | 854 nM | 142 nM | > 1000 nM | > 5000 nM | > 10000 nM | 251 nM | 427 nM | > 5000 nM |  |  |  |  |  |  |  |  |
| NC(=O)[C@H](CCC(=O)O)NC(=O)[C@H](Cc1c[nH]cn1)NC(=O)CCc1ccc(-c2ccc(-c3ccccc3)cc2)cc1 [Compound 77, (S)-4-((S)-3-(1H-imidazol-4-yl)-2-(3-(4′-phenylbiphenyl-4-yl)propanamido)propanamido)-5-amino-5-oxopentanoic acid] | > 1000 nM | > 1000 nM | > 1000 nM | > 50000 nM | > 5000 nM | 234 nM | 377 nM | > 10000 nM |  |  |  |  |  |  |  |  |
| NC(=O)[C@H](CCC(=O)O)NC(=O)[C@H](CO)NC(=O)CCc1ccc(-c2ccc(-c3ccccc3)cc2)cc1 [Compound 78, (S)-5-amino-4-((S)-3-hydroxy-2-(3-(4′-phenylbiphenyl-4-yl)propanamido)propanamido)-5-oxopentanoic acid] | 729 nM | 116 nM | > 1000 nM | > 5000 nM | > 5000 nM | 206 nM | 367 nM | > 1000 nM |  |  |  |  |  |  |  |  |
| CC(C)C[C@H](NC(=O)CCc1ccc(-c2ccc(-c3ccccc3)cc2)cc1)C(=O)N[C@@H](CCC(=O)O)C(N)=O [Compound 79, (S)-5-amino-4-((S)-4-methyl-2-(3-(4′-phenylbiphenyl-4-yl)propanamido)pentanamido)-5-oxopentanoic acid] | > 1000 nM | 203 nM | > 1000 nM | > 100000 nM | > 1000 nM | > 1000 nM | 443 nM | > 10000 nM |  |  |  |  |  |  |  |  |
| NC(=O)CC[C@H](NC(=O)[C@H](CCC(=O)O)NC(=O)CCc1ccc(-c2cccs2)cc1)C(N)=O [Compound 81, (S)-5-((S)-1,5-diamino-1,5-dioxopentan-2-ylamino)-5-oxo-4-(3-(4-(thiophen-2-yl)phenyl)propanamido)pentanoic acid] | 204 nM | > 10000 nM | 48 nM | > 1000 nM | 651 nM | 18.6 nM | 801 nM | > 1000 nM |  |  |  |  |  |  |  |  |
| NCCCC[C@H](NC(=O)[C@H](CCC(=O)O)NC(=O)CCc1ccc(-c2cccs2)cc1)C(N)=O [Compound 82, (S)-5-((S)-1,6-diamino-1-oxohexan-2-ylamino)-5-oxo-4-(3-(4-(thiophen-2-yl)phenyl)propanamido)pentanoic acid] | 234 nM | > 10000 nM | 73 nM | > 1000 nM | > 1000 nM | 44 nM | > 1000 nM | > 1000 nM |  |  |  |  |  |  |  |  |
| NC(=O)[C@H](CC(=O)O)NC(=O)[C@H](CCC(=O)O)NC(=O)CCc1ccc(-c2cccs2)cc1 [Compound 83, (S)-5-((S)-1-amino-3-carboxy-1-oxopropan-2-ylamino)-5-oxo-4-(3-(4-(thiophen-2-yl)phenyl)propanamido)pentanoic acid] | 334 nM | > 10000 nM | 49 nM | > 1000 nM | 435 nM | 14.2 nM | > 1000 nM | > 1000 nM |  |  |  |  |  |  |  |  |
| NC(=O)[C@H](Cc1ccc(O)cc1)NC(=O)[C@H](CCC(=O)O)NC(=O)CCc1ccc(-c2cccs2)cc1 [Compound 84, (S)-5-((S)-1-amino-3-(4-hydroxyphenyl)-1-oxopropan-2-ylamino)-5-oxo-4-(3-(4-(thiophen-2-yl)phenyl)propanamido)pentanoic acid] | 140 nM | > 5000 nM | 41 nM | 859 nM | 514 nM | 20.9 nM | 584 nM | > 1000 nM |  |  |  |  |  |  |  |  |
